Where two headings read alike, the source gives them in different places. Residues, ends and D or L forms follow the SMILES beside them. *: point of attachment. AMC = Cc1cc(=O)oc2cc(N*)ccc12; Cbz = O=C(OCc1ccccc1)*
How the values were obtained:
[1] = biological target: T1, CTL (Recombinant human Cathepsin L) (Homo sapiens, UniProt P07711); assay: HPLC analysis of probe processing by CTL; type: biochemical; settings: incubated with CTL in buffer at pH 5.0
T1 construct: purchased Abcam ab174030
Protocol: To confirm recognition of CTLAP by CTL, the probe was incubated with CTL in buffer at pH 5.0, and the probe was examined by HPLC analysis (FIG. 2). The compound alone in buffer retained maximum absorption at 330 nm.
[4-105] Cathepsin L reconstituted as per manufacturer's instructions, then diluted in a preliminary cathepsin storage buffer, in line with a literature procedure^16 (100 mM NaOAc/MaOH, 100 mM NaCl, 10 mM DTT, 1 mM EDTA, pH 5.5). Frozen in −80° C. freezer, and a portion removed and diluted in more cathepsin storage buffer to create 100 nM stock.
In opaque-bottom […], buffer (unfiltered) plated, then probes added, then enzyme added. Final solution in each well was 5 uM probe, 5 nM CTL, 10% DMSO/NaOAc buffer. Incubated at 37° C., removed at 10 min, 30 min, 1 h, and 4 h for measurement on plate reader (Synergy H1). […] Stored in tin foil at rt for 2 days, then stored in fridge.
To observe probe conversion, a well was diluted with DI water and injected into HPLC. […] The UV absorption traces of the new product(s) matched that of AMC.

[2] = biological target: T1, CTL (Recombinant human Cathepsin L); assay: Probe activation by CTL, turn-on ratio and selectivity; type: biochemical
Protocol: (§1) CTV and CTB appear to remain within the initial velocity region of the curves during this time, with a markedly lower slope than that observed for CTL initially.
To determine the relative selectivity of either probe for CTL, we examined the turn-on ratio (TOR) of the probes in response to each enzyme over the first hour of incubation by dividing the emission intensity at each time point by the average intensity of the probe in buffer without enzyme (FIG. 4).
(§2) • 1. Recombinant human Cathepsin L/MEP protein (Active) • a. Product ab174030; Lot No. (Conc.) GR3210572-1 (N/A) Sino Biological • 1. Human Cathepsin B/CTSB Protein (His Tag) • a. Cat. No. 10483-H08H • 2. Human Cathepsin V/Cathepsin L2/Preproprotein Protein (His Tag) • a. Cat. No. 10093-H08H • 3. Human Cathepsin S/CTSS Protein (His Tag) • a. Cat. No. 10487-H08H Santa Cruz Biotechnology, Inc. • 1. […] Enzyme storage and preparation:
Enzyme stocks (2.5 uM) were thawed and diluted to 100 nM with cathepsin storage buffer (pH 5.5). From calibrated probe stocks were created 50 uM working stocks in DMSO (3-157 accidentally prepared to 62.5 uM instead). In a 96-well plate, solutions of cathepsin reaction buffer (either pH 5.0 or 6.5), enzyme (5 nM), and probe (5 uM) were prepared. Probe added last to the reaction wells, then read in Synergy H1 plate reader immediately (˜5 min) for emission intensity at 350-445 nm. The plate was read at various time points, then stored in fridge overnight but not quenched. The pH 5.0 plate was read again after 48 h to capture completed reaction stage, and to collect emission spectra at 350 nm excitation for both caged and activated compound wells. […]
(§3) Cathepsins reconstituted as usual and diluted into cathepsin reaction buffers (pH 5.0 or 6.5) in an opaque-bottom 96-well plate. Probes added quickly to each active well, then emission measured immediately on BioTek Synergy H1 plate reader, collecting consecutive 36 sec runs over the first 15 min of reaction time. […]

[3] = biological target: T2, CTS (Human Cathepsin S/CTSS Protein) (Homo sapiens, UniProt P25774); assay: Time-course cathepsin assay, CTS signal normalized to CTL; type: biochemical; settings: 5 uM probe, 5 nM enzyme, lowest competing signal over time course
T2 construct: His; purchased Sino Biological 10487-H08H
Description: as §1
(§4) The kinetic assays were repeated at pH 5.0 (FIG. 3C, D), and overall the same trends were observed as at pH 6.5. One notable difference is the altered reaction slope of CTL at this pH, which appears to have less of a plateau and instead seems to shift to a second phase of constant, yet slower, velocity. […] This improved activity of CTB at low pH is consistent with previous observations that CTB's unique carboxypeptidase activity is dependent on an acidic environment, and that this activity is disengaged at neutral pH^13.
(§5) To estimate relative selectivity of the compounds for CTL over the other enzymes, the intensity at each time point for CTB, CTV, or CTS, was divided by the intensity of CTL at the same time point; this normalizes CTL-generated signal intensity to 1.0, and expresses the relative signal generated by the other enzymes (FIG. 5). These graphs indicate that off-target signal is least prominent within the first 10 min of incubation, as the faster kinetics of the probes to CTL generate more contrast at these earlier time points. To quantify the selectivity of CTLAP and sc-3136, the lowest interfering signal from each enzyme was identified and tabulated in Table 1. Also identified was the assay time at which the total competing signal (sum of CTB, CTV, and CTS) was lowest, and the relative intensity of all competing enzymes at that time point. […] The optimum results are achieved within 10 min incubation time, lending strength to the application of CTLAP for rapid detection of CTL, even in the presence of competing enzymes.
as §2
(§6) Cathepsins reconstituted as usual and diluted into cathepsin reaction buffers (pH 5.0 or 6.5) in an opaque-bottom 96-well plate. Probes added quickly to each active well, then emission measured immediately on BioTek Synergy H1 plate reader, collecting consecutive 36 sec runs over the first 15 min of reaction time. Final probe concentration was 5 uM and final enzyme concentration was 5 nM.

[4] = Molar attenuation coefficient and quantum yield; type: physicochemical; settings: for ε × 10^−3 (molar attenuation coefficient): absorption at 350 nm, standardized against 4-methylumbelliferone (MU); for ϕF (quantum yield): excitation 350 nm, emission 380-600 nm, standardized against MU
Protocol: To determine quantum yields, standard curves of CTLAP and sc-3136 were constructed between 0-10 μM in buffer, and the absorbance and total emission was measured. Values for the molar attenuation coefficient and quantum yield were standardized using measured absorption and emission intensity of 4-methylumbelliferone (MU) and its literature quantum yield and molar attenuation coefficient^14. Absorption of the solutions at 350 nm was measured, and all three compounds reported good (R^2>0.96) linear fit with increasing concentration (FIG. 10A). To measure total emission intensity, the emission spectrum of each compound was collected between 380-600 nm at an excitation wavelength of 350 nm; the area under the emission curve was calculated and graphed as a function of absorption value at 350 nm for each sample (FIG. 10B).
Compounds were compared to 4-methylumbelliferone (4-MU) and 2,4-difluoro-4-methylumbelliferone (DiFMU).
To construct calibration curves, stock solutions of 4-MU and DiFMU were prepared at ˜1 mM, then diluted with buffer (carbonate buffer, pH 10) to 50 uM. From these solutions, standard curves were constructed at 50, 25, 10, 5, and 1 uM by dilution with carbonate buffer, pH 10.1. Solutions were plated in 96-well plates. Absorbance at 350 nm was measured, and the fluorescence curve at 350 nm excitation and 380-600 nm was measured. The absorbance at 350 nm was graphed against the area under the curve (AUC) of the fluorescence spectrum from 380-600 nm, and the slope of each line was used to calculate the quantum yield according to the equation: […]

[5] = biological target: CTB (Human Cathepsin B/CTSB Protein) (Homo sapiens, UniProt P07858); assay: Time-course cathepsin assay, CTB signal normalized to CTL; type: biochemical; settings: 5 uM probe, 5 nM enzyme, lowest competing signal over time course
Description: as §1, §4, §5, §2, §6

[6] = Background emission intensity of probes in buffer without enzyme; type: physicochemical; settings: for emission intensity (background): stocks of equal absorbance at 330 nm, quadruplicate
Protocol: This is attributed to the lower emission intensity observed in CTLAP in buffer without enzyme; the measured emission intensity of the compound at 5 μM is consistently 6- to 8-fold lower than that of sc-3136 (FIG. 6). As low background signal can improve the sensitivity and detection limit of fluorogenic assays, we sought to identify the cause of the low background intensity of CTLAP. We first examined the spectral and photophysical properties of the compound to confirm that this low background intensity was not an artifact of experimental methods.
We next tested hypothesis (2), that the emission intensity measured for CTLAP or sc-3136 was somehow compromised by the experimental conditions or by the structural differences of the compounds.
To duplicate unexpected absorbances from 4-131, stocks of probes from 4-128 used to create true 50 uM stocks. UV absorbance at 330 nm measured in a 96-well plate, then 150 uL transferred to an opaque-bottom plate and emission intensity (350/445 nm) was measured. Experiments run in quadruplicate, with a buffer blank. Measured on a BioTek Synergy H1.
50 uL of these solutions were diluted with 150 uL cathepsin L reaction buffer (pH 5.0) to give solutions of 5 uM compound in 25% DMSO/buffer. These samples were used to measure UV-Vis spectra (250-400 nm) on a Shimadzu UV-2700. A blank solution of 25% DMSO/buffer was used to baseline the instrument. Between samples, the cuvette was flushed with 200 uL DMSO, drained, and the next sample was added.
The remaining 150 uL of solution was diluted with 450 uL buffer to give 600 uL of 5 uM compound in 25% DMSO/buffer. The solution was transferred to an opaque-bottom 96-well plate, in three aliquots of 200 uL. The plate was used to measure emission and excitation spectra, and quantitative endpoint emission intensities. All spectral scans were collected at 50 Gain, in 5 nm steps.

CTB, CTV, and CTS = assay: Time-course cathepsin assay, total competing signal (sum of CTB, CTV, and CTS) normalized to CTL; type: biochemical, human; settings: 5 uM probe, 5 nM enzyme
Description: as §1, §4, §5
Table 1. Signal generated by CTB, CTV, and CTS, or all three enzymes together, relative to CTL signal at that time point. The lowest competing signal over the time course in FIG. 5 was selected for each individual enzyme, as well as for the sum of signals from all three enzymes. The time point at which the sum of all competing signals is lowest is also listed.
• 1. Recombinant human Cathepsin L/MEP protein (Active) • a. Product ab174030; Lot No. (Conc.) GR3210572-1 (N/A) Sino Biological • 1. Human Cathepsin B/CTSB Protein (His Tag) • a. Cat. No. 10483-H08H • 2. Human Cathepsin V/Cathepsin L2/Preproprotein Protein (His Tag) • a. Cat. No. 10093-H08H • 3. Human Cathepsin S/CTSS Protein (His Tag) • a. Cat. No. 10487-H08H Santa Cruz Biotechnology, Inc. • 1. […]
as §3

[7] = biological target: T3, CTV (Human Cathepsin V/Cathepsin L2) (Homo sapiens, UniProt O60911); assay: Time-course cathepsin assay, CTV signal normalized to CTL; type: biochemical; settings: 5 uM probe, 5 nM enzyme, lowest competing signal over time course
T3 construct: His; purchased Sino Biological 10093-H08H
Description: as §1, §4, §5, §2, §6

[8] = standard, literature value; cited from earlier work

T1 sequence (P07711 114-333): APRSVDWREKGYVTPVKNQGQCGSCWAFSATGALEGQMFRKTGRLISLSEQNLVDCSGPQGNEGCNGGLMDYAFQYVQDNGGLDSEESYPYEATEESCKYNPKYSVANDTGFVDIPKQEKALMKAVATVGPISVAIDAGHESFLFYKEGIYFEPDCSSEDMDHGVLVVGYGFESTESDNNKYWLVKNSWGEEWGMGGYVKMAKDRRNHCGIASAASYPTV
T2 sequence (P25774 115-331): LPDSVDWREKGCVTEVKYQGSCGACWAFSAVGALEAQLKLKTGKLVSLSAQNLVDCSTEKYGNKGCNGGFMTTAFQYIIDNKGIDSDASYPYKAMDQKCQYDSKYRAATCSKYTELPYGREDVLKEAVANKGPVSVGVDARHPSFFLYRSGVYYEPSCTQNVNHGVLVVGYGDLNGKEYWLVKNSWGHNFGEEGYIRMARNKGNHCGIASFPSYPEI
T3 sequence (O60911 114-334): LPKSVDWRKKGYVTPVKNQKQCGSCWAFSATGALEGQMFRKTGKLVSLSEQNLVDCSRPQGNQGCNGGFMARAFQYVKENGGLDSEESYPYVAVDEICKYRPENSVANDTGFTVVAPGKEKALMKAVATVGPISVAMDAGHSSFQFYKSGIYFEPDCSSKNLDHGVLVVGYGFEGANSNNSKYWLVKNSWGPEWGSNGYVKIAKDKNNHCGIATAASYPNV

Row | Optimal (lowest) CTS signal normalized to CTL ([3]; pH 5.0) | Optimal (lowest) CTS signal normalized to CTL ([3]; pH 6.5) | ε × 10^−3 (molar attenuation coefficient) [4] | ϕF (quantum yield) [4] | Optimal (lowest) CTB signal normalized to CTL ([5]; pH 5.0) | Optimal (lowest) CTB signal normalized to CTL ([5]; pH 6.5) | emission intensity (background) ([6]; 350/445 nm) | Lowest sum of signals from all three enzymes (B + V + S) normalized to CTL (CTB, CTV, and CTS; pH 5.0) | Lowest sum of signals from all three enzymes (B + V + S) normalized to CTL (CTB, CTV, and CTS; pH 6.5) | Optimal (lowest) CTV signal normalized to CTL ([7]; pH 5.0) | Optimal (lowest) CTV signal normalized to CTL ([7]; pH 6.5) | Compound | further results
1 | 1% | 1% | 11.0 | 0.02 | 15% | 6% | 6.1e3 rfu | 31% | 25% | 10% | 15% | Cc1cc(=O)oc2cc(NC(=O)C(CCCCN)NC(=O)C(Cc3ccc(-c4cccs4)cc3)NC(=O)OCc3ccccc3)ccc12 (centres unmarked) [CTLAP] | conversion of probe to free AMC peak (HPLC) [1]: full conversion; selectivity for CTL over other cathepsins [2]: 6- to 10 fold; turn-on ratio (TOR) relative to that of sc-3136 ([2]; after 1 h incubation): approximately 4 fold; increase in emission intensity ([2]; within 10 min of incubation with CTL): 24 fold; emission intensity in buffer without enzyme, fold lower than sc-3136 ([6]; compound at 5 μM, 350 nm excitation, 445 nm emission): 6- to 8 fold
2 | – | – | – | – | – | – | – | – | – | – | – | Cc1cc(=O)oc2cc(O)ccc12 [MU, 4-methylumbelliferone] | ε × 10^−3 (molar attenuation coefficient) [8]: 19.3; ϕF (quantum yield) [8]: 0.63
3 | 7% | 7% | 7.5 | 0.32 | 16% | 21% | 4.8e4 rfu | 39% | 46% | 14% | 16% | Cc1cc(=O)oc2cc(NC(=O)C(CCCN=C(N)N)NC(=O)C(Cc3ccccc3)NC(=O)OCc3ccccc3)ccc12 (stereo not drawn) [sc-3136, Z-FR-AMC] (Cbz-Phe-Arg-{AMC}; configuration not given here) | ratio of background intensity for sc-3136 over 3-157 ([6]; 350/445 nm): 7.8 ×; emission intensity ratio between sc-3136 and CTLAP ([6]; excitation at 330 nm): 6.9 fold; emission intensity ratio between sc-3136 and CTLAP ([6]; excitation at 350 nm): 6.3 fold

Reference: patent US12384767B2, “Probe for detection of cathepsin activity” (University of Florida Research Foundation, Incorporated, priority 2020, dated 2025)
